Usually EC50 stands for the concentration giving half of the maximal effect. Low values mean higher potency in that assay, high ones lower potency in that assay.

Test [1] addresses T1, α4β2δ GABAAR (human α4, rat β2, rat δ with N-terminal FLAG) (Rattus norvegicus (beta2, delta); Homo sapiens (alpha4), UniProt P18506+P48169+P63138, P18506:T285Y).
T1 construct: gene GABRA4; free full subunits transiently transfected (cDNA α:β:δ 1:1:2) in mouse Neuro-2a cells
Put plainly: whole-cell patch clamp in transfected N2a cells, agonist concentration response, Hill fit. The test is classed as cell-based.

The target in test [2] is T2, α4β2δ GABAAR (human α4, rat β2, rat δ with N-terminal FLAG) (Rattus norvegicus (beta2, delta); Homo sapiens (alpha4), UniProt P18506+P48169+P63138).
T2 construct: gene GABRA4; free full subunits transiently transfected (cDNA α:β:δ 1:1:2) in mouse Neuro-2a cells
T2 sequence (P63138 26-474): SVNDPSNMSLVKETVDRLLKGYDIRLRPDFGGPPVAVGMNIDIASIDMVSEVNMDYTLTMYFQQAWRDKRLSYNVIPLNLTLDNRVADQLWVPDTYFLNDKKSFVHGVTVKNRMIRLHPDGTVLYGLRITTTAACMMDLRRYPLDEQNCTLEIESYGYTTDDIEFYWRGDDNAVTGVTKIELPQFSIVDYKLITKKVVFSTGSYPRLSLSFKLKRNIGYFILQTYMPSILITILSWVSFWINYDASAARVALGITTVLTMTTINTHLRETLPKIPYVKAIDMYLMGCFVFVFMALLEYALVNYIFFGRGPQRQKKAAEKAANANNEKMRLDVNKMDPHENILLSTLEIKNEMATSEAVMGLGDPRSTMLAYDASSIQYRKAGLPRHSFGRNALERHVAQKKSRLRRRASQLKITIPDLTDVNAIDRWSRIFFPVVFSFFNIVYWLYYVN
T2 sequence (P48169 36-554): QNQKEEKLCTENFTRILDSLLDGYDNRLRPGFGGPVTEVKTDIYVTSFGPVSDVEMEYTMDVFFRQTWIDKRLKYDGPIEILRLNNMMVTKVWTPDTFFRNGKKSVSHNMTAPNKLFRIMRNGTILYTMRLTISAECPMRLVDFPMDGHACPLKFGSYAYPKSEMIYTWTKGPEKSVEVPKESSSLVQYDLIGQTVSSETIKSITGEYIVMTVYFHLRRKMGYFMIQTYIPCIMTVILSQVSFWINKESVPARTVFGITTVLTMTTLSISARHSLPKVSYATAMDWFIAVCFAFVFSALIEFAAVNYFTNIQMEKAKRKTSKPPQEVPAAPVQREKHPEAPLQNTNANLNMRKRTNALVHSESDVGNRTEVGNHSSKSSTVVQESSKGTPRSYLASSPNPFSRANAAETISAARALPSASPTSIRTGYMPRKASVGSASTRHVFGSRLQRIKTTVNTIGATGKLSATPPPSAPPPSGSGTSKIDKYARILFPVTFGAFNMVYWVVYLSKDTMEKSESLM
T2 sequence (P18506 25-449): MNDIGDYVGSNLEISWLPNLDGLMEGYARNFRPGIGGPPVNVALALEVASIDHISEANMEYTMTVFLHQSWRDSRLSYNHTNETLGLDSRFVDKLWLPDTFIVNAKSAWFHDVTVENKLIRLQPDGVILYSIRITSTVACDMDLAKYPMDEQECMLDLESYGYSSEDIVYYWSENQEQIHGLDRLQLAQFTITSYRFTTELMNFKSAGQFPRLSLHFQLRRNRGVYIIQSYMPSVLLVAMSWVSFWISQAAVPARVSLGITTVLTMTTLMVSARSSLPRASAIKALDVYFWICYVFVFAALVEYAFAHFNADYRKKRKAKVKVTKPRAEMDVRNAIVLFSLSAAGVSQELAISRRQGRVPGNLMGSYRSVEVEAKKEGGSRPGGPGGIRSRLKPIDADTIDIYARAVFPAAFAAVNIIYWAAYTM
The description is as above. The test is classed as cell-based.

T1 sequence (P48169 36-554): as the sequence (P48169 36-554) above
T1 sequence (P63138 26-474): as the sequence (P63138 26-474) above

Consider `Oc1noc2c1CCNC2` [THIP, 4,5,6,7-tetrahydroisoxazolo[5,4-c]pyridin-3-ol], for which the EC50 in test [1] turned out to be 16.7 µM; in test [2] it was 38.7 µM.
